Entries after “also recorded” stand apart in the source; their conditions may differ.
Experiments:
[1] = tested on: guinea pig right ventricular myocardium sample; test: APD prolonging effect, action potential of guinea pig right ventricular myocardium sample; type: cell-based; conditions: for relative strength of APD prolonging effect, Tukey test / APD prolonging effect (rate of change in APD90 with respect to the initial value), Average: after 60 minute-exposure; for relative strength of APD prolonging effect, Tukey test: statistically significant difference; for relative strength of APD prolonging effect: at each of the measured points; for myocardial action potential duration, effect of exposure: exposed for 10 minutes or more, paired t-test; for APD prolonging effect (rate of change in APD90 with respect to the initial value), Average: Dose 100 (μM)
Experimental: Slc: Hartley male guinea pigs (body weight: 322 to 667 g each) were employed as subjects.
Each of compound (I), compound (II), and gatifloxacin was dissolved in an aqueous 1% lactic acid solution, to thereby prepare a 10 mM solution. The resultant solution was employed as a drug solution.
Measurement of action potential was performed as follows. Specifically, the heart was quickly removed from each of the guinea pigs, and in a nutrition solution (Krebs-Henseleit) aerated with 95% O2+5% CO2 at room temperature, the right ventricular free wall was dissected to thereby prepare a myocardium sample. By use of an injection needle and platinum bipolar electrodes for electric stimulation, the sample was horizontally fixed onto a silicon block within a 20 ml organ bath (maintained at 36.5±0.5° C.) perfused with the nutrition solution aerated with 95% O2+5% CO2. During the test, the sample was electrically stimulated at a frequency of 1 Hz by means of rectangular pulses (voltage: about 1.3 times the threshold at which contraction of the sample is initiated, duration: 1 msec) provided from an electrostimulator via the platinum bipolar electrodes. The action potential of the cells was measured via glass microelectrodes (electrode resistance: 5 to 30 MΩ) which were filled with a 3 M KCl solution and connected to an amplifier for microelectrodes, and the action potential was recorded and analyzed by use of a computer. After electrical stimulation of the sample was continued for one hour or more, the action potential was measured before administration of the drug solution, and 10, 20, 30, 40, 50, and 60 minutes after administration of the drug solution. At each point in time, the action potential was measured and recorded in triplicate, and the average of the measured potentials was taken as the value for that point in time.
The drug solution (200 μL) was added to the 20 mL organ bath by use of a micropipette (final concentration of the drug solution in the bath: 100 μM). On the basis of the thus-measured action potential waveform, resting membrane potential (RMP), overshoot (OS), action potential amplitude (APA), action potential durations at 20%, 50%, and 90% repolarization (APD20, APD50, and APD90), and maximum rising velocity (Vmax) were obtained.
In each of the groups, the paired t-test was performed on the initial value of APD90 and on the action potential measured at each of the aforementioned points in time. Also, time-course variance analysis was performed, and the action potential after the 60 minute-exposure of the sample to the drug solution was subjected to the Tukey test, to thereby perform comparison between the groups. The level of significance was set at 5%, two-sided.

E. Coli, NIHJ = test: Antimicrobial activity, standard method of Japanese Society of Chemotherapy; type: cell-based
Experimental: (§1) The antimicrobial activity of the thus-obtained compound was measured by means of the standard method of Japanese Society of Chemotherapy.

E. faecalis, 19433 = test: as above; type: cell-based
Experimental: as §1

P. aeruginosa, 32104 = test: as above; type: cell-based
Experimental: as §1

P. aeruginosa, 32121 = test: as above; type: cell-based
Experimental: as §1

P. vulgaris 08601 = test: as above; type: cell-based
Experimental: as §1

S. aureus, FDA 209-P = test: as above; type: cell-based
Experimental: as §1

S. epidermidis, 56500 = test: as above; type: cell-based
Experimental: as §1

S. marcescens, 101000 = test: as above; type: cell-based
Experimental: as §1

[2] = Japanese Journal of Chemotherapy, Volume 47, 1999; cited from earlier work
[3] = Japanese Journal of Chemotherapy, Volume 47, 1999; cited from earlier work; remark: listed apart in the source
[4] = 100 μM, Time 10 (minutes after administration)
[5] = 100 μM, Time 20 (minutes after administration)
[6] = 100 μM, Time 30 (minutes after administration)
[7] = 100 μM, Time 40 (minutes after administration)
[8] = 100 μM, Time 50 (minutes after administration)
[9] = 100 μM, Time 60 (minutes after administration)
[10] = Time 0, initial value before administration of the drug solution

SMILES	myocardial action potential duration (APD90), Average [1, 4]	myocardial action potential duration (APD90), Average [1, 5]	myocardial action potential duration (APD90), Average [1, 6]	myocardial action potential duration (APD90), Average [1, 7]	myocardial action potential duration (APD90), Average [1, 8]	myocardial action potential duration (APD90), Average [1, 9]	relative strength of APD prolonging effect, Tukey test ([1]; 100 μM)	relative strength of APD prolonging effect ([1]; 100 μM)	myocardial action potential duration, effect of exposure ([1]; 100 μM)	APD prolonging effect (rate of change in APD90 with respect to the initial value), Average [1]	myocardial action potential duration (APD90), Average [1, 10]	antimicrobial activity, difference between the antipodes [2]	pharmacokinetic action in the body, difference between the antipodes [3]	other results
COc1c(N2CCN[C@@H](C)C2)c(F)cc2c(=O)c(C(=O)O)cn(C3CC3)c12 [Compound (I), 1-Cyclopropyl-6-fluoro-1,4-dihydro-8-methoxy-7-{3-(S)-methylpiperazin-1-yl}-4-oxoquinoline-3-carboxylic acid]	175.7500	180.2217	184.2600	190.6275	192.0675	193.5025	compound (II)>gatifloxacin>compound (I)	compound (II)>gatifloxacin>compound (I)	significantly prolonged	11.2206	170.3200	no great difference	no great difference	strength of APD prolonging effect compared with gatifloxacin and the antipode ([1]; 100 μM): significantly lower APD prolonging effect; also recorded: lower than that of the prolonging effect of gatifloxacin or compound (II); antimicrobial activity (E. Coli, NIHJ): ≦0.003; antimicrobial activity (E. faecalis, 19433): 0.39; antimicrobial activity (P. aeruginosa, 32104): 0.20; antimicrobial activity (P. aeruginosa, 32121): 0.10; antimicrobial activity (P. vulgaris 08601): 0.006; antimicrobial activity (S. aureus, FDA 209-P): 0.05; antimicrobial activity (S. epidermidis, 56500): 0.20; antimicrobial activity (S. marcescens, 101000): 0.10
COc1c(N2CCN[C@H](C)C2)c(F)cc2c(=O)c(C(=O)O)cn(C3CC3)c12 [Compound (II), 1-Cyclopropyl-6-fluoro-1,4-dihydro-8-methoxy-7-{3-(R)-methylpiperazin-1-yl}-4-oxoquinoline-3-carboxylic acid]	185.9917	191.9500	194.2750	205.5900	203.1350	206.9400	compound (II)>gatifloxacin>compound (I)	compound (II)>gatifloxacin>compound (I)	significantly prolonged	17.1760	176.1567	no great difference	no great difference	
COc1c(N2CCNC(C)C2)c(F)cc2c(=O)c(C(=O)O)cn(C3CC3)c12 (stereo not shown) [Gatifloxacin]	180.6120	184.9200	192.2467	190.8950	201.5533	196.4925	compound (II)>gatifloxacin>compound (I)	compound (II)>gatifloxacin>compound (I)	significantly prolonged	13.7789	174.8600			
